Experimental data published in article PMC7138916 (Pharmacology Research & Perspectives, 2020).

Key:
[1] = Bidirectional permeability in parental MDCK cells; type: in vitro ADME, Canine; conditions: dog, MDCK
human P-gp (MDR1) = human P-gp (MDR1) (Homo sapiens, UniProt P08183); experiment: Bidirectional permeability and efflux ratio in MDR1‐MDCK cells; type: in vitro ADME; conditions: human; for Papp A→B at 2 h, 1 μmol/L / Papp B→A at 2 h, 1 μmol/L: MDCK-MDR1; for efflux ratio at 2 h, 1 μmol/L: MDCK-MDR1, Efflux ratio, MDR1‐MDCK cell line, P app(B–A)/P app(A–B)
human P‐gp (MDR1‐MDCK) = human P‐gp (MDR1‐MDCK) (Homo sapiens, UniProt P08183); experiment: as above; type: in vitro ADME; conditions: MDR1‐MDCK cell line; for Efflux ratio: P app(B–A)/P app(A–B)
[2] = Bidirectional permeability and efflux ratio in Caco‐2 cells; type: in vitro ADME, human; conditions: human; for Papp A→B at 2 h, 5 μmol/L / Papp B→A at 2 h, 5 μmol/L: Caco-2; for efflux ratio at 2 h, 5 μmol/L: Caco-2, Efflux ratio, Caco‐2 cell line, P app(B–A)/P app(A–B)
Caco‐2 cell line = experiment: as above; type: in vitro ADME, human; conditions: for Efflux ratio: P app(B–A)/P app(A–B)
[3] = Rat pharmacokinetic study, IV single bolus; conditions: for Vd / clearance / half-life: male, Sprague-Dawley, in vivo, iv
[4] = tested on: efflux transporters (eg, P‐gp, BCRP, MRPs); experiment: Classification as efflux transporter substrate; conditions: for Efflux transporter substrate: Yes/No; for Class (based on membrane permeability and ER value): parental MDCK, MDR1‐MDCK, and Caco‐2 cell lines
[5] = Rat brain and blood microdialysis at steady state; conditions: for concentration at 6 h: male, Sprague-Dawley, in vivo, iv, C m,brain
[6] = Rat microdialysis at additional two brain positions; type: in vivo; conditions: steady state, n = 3, mean ± SD
[7] = cited from earlier work
P‐gp = conditions: cited from earlier work
MDCK‐MDR1‐NKI cell lines = conditions: cited from earlier work
MDCK cell line = experiment: Bidirectional permeability in parental MDCK cells; type: in vitro ADME, Canine; conditions: MDCK cell line, 1 μmol/L, 2 hours, 10 uM Cyclosporin A, n = 4
[8] = rat; ref 20 (Summerfield et al); cited from earlier work
[9] = rat, steady‐state unbound concentration in brain (right striatum), microdialysis, IV infusion, mean ± SD
[10] = Caco‐2 cell line, 5 μmol/L, 2 hours, n = 4
[11] = IV single bolus, n = 3, mean ± SD

human P-gp (MDR1), sequence (P08183 whole entry): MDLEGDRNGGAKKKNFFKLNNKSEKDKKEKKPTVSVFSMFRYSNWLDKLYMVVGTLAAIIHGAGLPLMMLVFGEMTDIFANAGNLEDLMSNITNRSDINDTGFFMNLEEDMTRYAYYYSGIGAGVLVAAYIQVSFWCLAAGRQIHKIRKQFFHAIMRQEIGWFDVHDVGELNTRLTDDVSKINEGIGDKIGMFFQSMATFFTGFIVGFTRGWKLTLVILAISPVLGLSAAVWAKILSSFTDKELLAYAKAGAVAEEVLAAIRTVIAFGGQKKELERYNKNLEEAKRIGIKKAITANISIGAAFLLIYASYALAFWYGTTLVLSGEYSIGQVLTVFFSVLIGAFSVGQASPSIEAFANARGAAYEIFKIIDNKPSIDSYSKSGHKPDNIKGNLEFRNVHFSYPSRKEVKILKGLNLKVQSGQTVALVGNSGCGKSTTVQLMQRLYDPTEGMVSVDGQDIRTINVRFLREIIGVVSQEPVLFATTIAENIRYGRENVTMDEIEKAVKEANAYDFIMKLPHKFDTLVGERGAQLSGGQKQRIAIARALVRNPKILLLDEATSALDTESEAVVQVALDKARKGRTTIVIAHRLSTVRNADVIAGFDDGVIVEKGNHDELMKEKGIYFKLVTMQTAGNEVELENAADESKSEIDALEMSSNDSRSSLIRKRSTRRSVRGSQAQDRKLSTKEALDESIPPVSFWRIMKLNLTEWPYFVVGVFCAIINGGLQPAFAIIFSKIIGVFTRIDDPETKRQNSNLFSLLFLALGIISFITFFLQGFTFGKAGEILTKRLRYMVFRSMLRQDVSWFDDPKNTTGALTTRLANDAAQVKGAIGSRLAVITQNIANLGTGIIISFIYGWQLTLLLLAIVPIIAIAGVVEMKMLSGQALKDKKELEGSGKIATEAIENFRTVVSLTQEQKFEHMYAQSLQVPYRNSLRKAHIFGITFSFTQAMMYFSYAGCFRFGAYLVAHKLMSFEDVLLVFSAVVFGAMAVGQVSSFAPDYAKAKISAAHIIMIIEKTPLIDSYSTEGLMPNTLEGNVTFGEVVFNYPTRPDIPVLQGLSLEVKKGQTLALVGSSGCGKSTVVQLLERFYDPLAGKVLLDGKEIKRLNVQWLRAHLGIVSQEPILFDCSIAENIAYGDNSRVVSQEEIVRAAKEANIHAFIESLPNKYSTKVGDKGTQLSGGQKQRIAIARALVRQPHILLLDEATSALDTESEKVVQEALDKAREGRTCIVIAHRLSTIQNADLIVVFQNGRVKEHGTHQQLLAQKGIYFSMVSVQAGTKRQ
human P‐gp (MDR1‐MDCK), sequence (P08183 whole entry): as above

Papp A→B at 2 h, 1 μmol/L [1] [×10⁻⁶ cm/s] | Papp B→A at 2 h, 1 μmol/L [1] [×10⁻⁶ cm/s] | Papp at 2 h, 1 μmol/L [1] [×10⁻⁶ cm/s] | Papp A→B at 2 h, 1 μmol/L (human P-gp (MDR1)) [×10⁻⁶ cm/s] | Papp B→A at 2 h, 1 μmol/L (human P-gp (MDR1)) [×10⁻⁶ cm/s] | Efflux ratio (human P‐gp (MDR1‐MDCK)) | Papp A→B at 2 h, 5 μmol/L [2] [×10⁻⁶ cm/s] | Papp B→A at 2 h, 5 μmol/L [2] [×10⁻⁶ cm/s] | Efflux ratio (Caco‐2 cell line; Caco‐2 cell line) | Vd [3] [L/kg] | clearance [3] [mL/min/kg] | half-life [3] [h] | Efflux transporter substrate [4] | Class (based on membrane permeability and ER value) [4] | concentration at 6 h [5, 9] [nM] | SMILES | further results
 |  |  |  |  |  |  |  |  | 0.453 ± 0.048 | 1.58 ± 0.52 | 3.42 ± 1.02 |  |  | 4520 ± 2110 | Cn1c(=O)c2[nH]cnc2n(C)c1=O [Theophylline, theophylline] | reported mean values of rat plasma CL [7]: 2.39 mL/min/kg
 |  |  |  |  |  |  |  |  |  |  |  |  |  | 552 ± 126 | C=C[C@H]1C[N@@]2CC[C@H]1C[C@@H]2[C@@H](O)c1ccnc2ccc(OC)cc12 [Quinidine, quinidine] | permeability (MDCK‐MDR1‐NKI cell lines): about 60 × 10^−6 cm/sec
13.7 ± 5.3 | 8.37 ± 3.8 | 11 ± 5.2 | 18.9 ± 2.6 | 16.8 ± 0.5 |  | 21.2 ± 3.6 | 13.8 ± 0.5 | 0.654 | 4.64 ± 0.7 | 82.8 ± 12.5 | 0.943 ± 0.062 | No | Class I | 1490 ± 240 | CC(C)NCC(O)COc1cccc2ccccc12 (stereo not drawn) [Propranolol, propranolol] | Average P app (MDCK cell line): about 11.0 10^−6 cm/s; Efflux ratio (Caco‐2 cell line; Caco‐2 cell line, listed as propranolol): less than 2.0; reported mean values of rat plasma CL [7]: 68 mL/min/kg
 |  |  |  |  |  |  |  |  | 5.08 ± 2.99 | 32.5 ± 4.9 | 6.32 ± 3.34 |  |  | 678 ± 293 | CC1COc2c(N3CCN(C)CC3)c(F)cc3c(=O)c(C(=O)O)cn1c23 (stereo not drawn) [Ofloxacin, ofloxacin] | 
0.452 ± 0.092 | 0.793 ± 0.148 | 0.623 ± 0.215 | 0.709 ± 0.236 | 0.442 ± 0.252 | 0.623 | 0.392 ± 0.207 | 0.707 ± 0.443 | 1.81 | 0.637 ± 0.272 | 14 ± 1.8 | 4.97 ± 1.15 | Yes (?) | Class II | 31.3 ± 19.3 | Nc1nc2[nH]cc(CCc3ccc(C(=O)N[C@@H](CCC(=O)O)C(=O)O)cc3)c2c(=O)[nH]1 [Pemetrexed, pemetrexed] | Average P app (MDCK cell line): 0.623 10^−6 cm/s; Efflux ratio (human P‐gp (MDR1‐MDCK); listed as pemetrexed): less than 2.0; efflux ratio at 2 h, 5 μmol/L [2]: < 2; difference in steady‐state unbound drug concentrations between the brain and blood ([5]; brain lower than blood, rat microdialysis): 86 fold
1.07 ± 0.08 | 2.21 ± 0.37 | 1.64 ± 0.66 | 0.683 ± 0.04 | 1.54 ± 0.59 |  | 0.904 ± 0.283 | 1.91 ± 0.6 |  | 3.11 ± 0.03 | 59.1 ± 5.8 | 0.98 ± 0.011 | Yes | Class II | 845 ± 439 | CNS(=O)(=O)Cc1ccc2[nH]cc(CCN(C)C)c2c1 [Sumatriptan, sumatriptan] | efflux ratio at 2 h, 1 μmol/L (human P-gp (MDR1)): 2.25; efflux ratio at 2 h, 5 μmol/L [2]: 2.12; steady‐state unbound concentration in brain lower than in plasma [8]: about 20 fold

The next lines start with the compound.

SMILES | Papp A→B at 2 h, 1 μmol/L [1] [×10⁻⁶ cm/s] | Papp B→A at 2 h, 1 μmol/L [1] [×10⁻⁶ cm/s] | Papp at 2 h, 1 μmol/L [1] [×10⁻⁶ cm/s] | Papp A→B at 2 h, 1 μmol/L (human P-gp (MDR1)) [×10⁻⁶ cm/s] | Papp B→A at 2 h, 1 μmol/L (human P-gp (MDR1)) [×10⁻⁶ cm/s] | Efflux ratio (human P‐gp (MDR1‐MDCK)) | Papp A→B at 2 h, 5 μmol/L [2] [×10⁻⁶ cm/s] | Papp B→A at 2 h, 5 μmol/L [2] [×10⁻⁶ cm/s] | Efflux ratio (Caco‐2 cell line; Caco‐2 cell line) | Vd [3] [L/kg] | clearance [3] [mL/min/kg] | half-life [3] [h] | Efflux transporter substrate [4] | Class (based on membrane permeability and ER value) [4] | concentration at 6 h [5, 9] [nM] | further results
CN/C(=N/CCSCc1nc[nH]c1C)NC#N [Cimetidine] | 0.963 ± 0.26 | 2.37 ± 0.16 | 1.67 ± 0.78 | 1.91 ± 0.93 | 3.22 ± 0.389 | 1.68 | 0.706 ± 0.204 | 6.49 ± 1.37 | 9.20 | 3.3 ± 1.93 | 53.7 ± 4.8 | 5.91 ± 4.71 | Yes | Class II | 1420 ± 370 | efflux ratio at 2 h, 1 μmol/L (human P-gp (MDR1)): < 2; Efflux ratio (Caco‐2 cell line; Caco‐2 cell line, listed as cimetidine): greater than 2.0; ER after treatment with novobiocin (Caco‐2 cell line; Caco‐2 cells treated with novobiocin (BCRP inhibitor), supplemental data): 3.29
Cc1c(N)c(=O)n(-c2ccccc2)n1C [4‐Aminoantipyrine, 4‐aminoantipyrine] |  |  |  |  |  | 0.662 |  |  | 0.713 |  |  |  | No | Class I |  | P app(A–B) (human P‐gp (MDR1‐MDCK); 1 μmol/L, 2 hours, n = 4): 39.1 ± 3.4 10^−6 cm/s; P app(B–A) (human P‐gp (MDR1‐MDCK); 1 μmol/L, 2 hours, n = 4): 25.9 ± 1.7 10^−6 cm/s; Efflux ratio (human P‐gp (MDR1‐MDCK); listed as 4‐aminoantipyrine): less than 2.0; P app(A–B) (Caco‐2 cell line; [10]): 36.1 ± 2.5 10^−6 cm/s; P app(B–A) (Caco‐2 cell line; [10]): 25.8 ± 1.5 10^−6 cm/s; Efflux ratio (Caco‐2 cell line; Caco‐2 cell line, listed as 4‐aminoantipyrine): less than 2.0; T 1/2 [3, 11]: 0.883 ± 0.025 h; V ss [3, 11]: 0.772 ± 0.018 L/kg; CL ([3]; plasma, IV single bolus, n = 3, mean ± SD): 17.7 ± 0.8 mL/min/kg; C csf ([5]; concentration in CSF at end of infusion (6 hours), rat, n = 3‐4, mean ± SD): 5.82 ± 0.49 µmol/L; C csf lower than C m,brain by ([5]; rat, steady state): about 25%; C m,blood ([5]; steady‐state unbound concentration in blood, microdialysis, rat, IV infusion, n = 3‐4, mean ± SD): 6.73 ± 0.32 µmol/L; C m,brain ([5]; steady‐state unbound concentration in brain (right striatum), microdialysis, rat, IV infusion, mean ± SD): 7.71 ± 0.67 µmol/L
CC(=O)Nc1ccc(O)cc1 [Acetaminophen] | 16.7 ± 0.6 | 14.2 ± 0.9 | 15.5 ± 1.5 | 18.5 ± 4.6 | 14.3 ± 0.9 |  | 19.6 ± 2.1 | 19.6 ± 1.9 |  | 2.87 ± 1.44 |  | 4.96 ± 2.31 |  |  | 3450 ± 820 | C m,brain ([6]; Frontal cortex): 4.79 ± 0.34 µmol/L; C m,brain ([6]; Hypothalamus): 4.62 ± 0.82 µmol/L
Nc1nc(O)c2ncn(COC(CO)CO)c2n1 [Ganciclovir, ganciclovir] |  |  |  |  |  |  |  |  |  | 0.852 ± 0.159 | 21.5 ± 1.4 | 1.35 ± 0.04 |  |  | 2230 ± 960 | 
CN(C)CCCC1(c2ccc(F)cc2)OCc2cc(C#N)ccc21 (stereo not drawn) [Citalopram, citalopram] | 19 ± 3.1 | 10.9 ± 2.6 | 15 ± 5.1 | 13.8 ± 3.2 | 23.7 ± 0.7 | 1.72 | 16 ± 1.8 | 17.4 ± 1.4 | 1.09 | 6.45 ± 0.64 | 95.9 ± 11.2 | 1.02 ± 0.05 | No | Class I | 954 ± 91 | efflux ratio at 2 h, 1 μmol/L (human P-gp (MDR1)): < 2; efflux ratio at 2 h, 5 μmol/L [2]: < 2
COc1ccc([C@@H]2Sc3ccccc3N(CCN(C)C)C(=O)[C@@H]2OC(C)=O)cc1 [Diltiazem, diltiazem] | 23.2 ± 2.6 | 13.6 ± 1.3 | 18.4 ± 5.5 | 12.5 ± 3.1 | 18.7 ± 1.9 | 1.49 | 21.7 ± 2.3 | 20.1 ± 2.3 | 0.926 | 2.85 ± 0.3 | 97.7 ± 18.8 | 0.823 ± 0.325 | No | Class I |  | efflux ratio at 2 h, 1 μmol/L (human P-gp (MDR1)): < 2; Efflux ratio (Caco‐2 cell line; Caco‐2 cell line, listed as diltiazem): less than 2.0; reported mean values of rat plasma CL [7]: 90.3 mL/min/kg
Cc1c(O)cccc1C(=O)N[C@@H](CSc1ccccc1)[C@H](O)CN1C[C@H]2CCCC[C@H]2C[C@H]1C(=O)NC(C)(C)C [neflinivir] |  |  |  |  |  |  |  |  |  |  |  |  |  |  |  | permeability (P‐gp): 197 ×10⁻⁶ cm/s
NC(=O)N1c2ccccc2C=Cc2ccccc21 [Carbamazepine, carbamazepine] | 34.2 ± 2.6 |  | 27.5 ± 7.5 | 34.3 ± 1.2 | 22.8 ± 0.5 | 0.665 | 33.1 ± 2.3 | 22 ± 1 | 0.662 | 0.745 ± 0.081 | 18.1 ± 2.9 | 0.993 ± 0.115 | No | Class I | 1370 ± 170 | Efflux ratio (human P‐gp (MDR1‐MDCK); listed as carbamazepine): less than 2.0; Efflux ratio (Caco‐2 cell line; Caco‐2 cell line, listed as carbamazepine): less than 2.0; C csf higher than C m,brain by ([5]; rat, steady state): 25%
Cc1cc(=O)n(-c2ccccc2)n1C [Antipyrine] |  |  |  | 38.2 ± 2.1 | 25.8 ± 1.9 |  | 36.2 ± 1.2 | 25.1 ± 0.6 |  | 0.724 ± 0.051 | 4.81 ± 0.77 | 1.99 ± 0.43 | No | Class I |  | C m,brain ([6]; Frontal cortex): 3.66 ± 1.19 µmol/L; C m,brain ([6]; Hypothalamus): 3.81 ± 0.25 µmol/L
Nc1nnc(-c2cccc(Cl)c2Cl)c(N)n1 [Lamotrigine, lamotrigine] |  |  |  |  |  |  |  |  |  | 1.86 ± 0.18 | 1.48 ± 0.21 | 15.6 ± 3 |  |  | 757 ± 42 | reported mean values of rat plasma CL [7]: 0.83 mL/min/kg; C csf higher than C m,brain by ([5]; rat, steady state): 45%
